# Patent US4443436A, “C-20-Modified macrolide derivatives of the macrolide antibiotics tylosin, desmycosin, macrocin, and lactenocin” (Eli Lilly and Company, priority 1982, dated 1984)
# Like-named read-outs stand apart in the source and are kept apart here.
# What was measured:
# Type in all cases: cell-based
# [1] = tested on: Staphylococcus aureus S13E; experiment: MIC, standard agar-dilution assay, Staphylococcus aureus S13E; details: Staphylococcus aureus, S13E
# [2] = tested on: Pasteurella hemolytica 22C; experiment: MIC, broth-dilution microtiter test, Pasteurella hemolytica 22C; details: Pasteurella hemolytica 22C; broth-dilution microtiter; read-out: MIC
# Excerpt: (§1) The MIC's in Table X were obtained using conventional broth-dilution microtiter tests.
# [3] = tested on: Streptococcus pyogenes C203; experiment: MIC, standard agar-dilution assay, Streptococcus pyogenes C203
# [4] = tested on: Haemophilus influenzae Holt; experiment: MIC, standard agar-dilution assay, Haemophilus influenzae Holt
# [5] = tested on: Pasteurella multocida 17E; experiment: MIC, broth-dilution microtiter test, Pasteurella multocida 17E; details: Pasteurella multocida 17E; bovine isolate; broth-dilution microtiter; read-out: MIC
# Excerpt: as §1
# [6] = tested on: Staphylococcus epidermidis EPI2; experiment: MIC, standard agar-dilution assay, Staphylococcus epidermidis EPI2; details: Staphylococcus epidermidis, EPI2
# [7] = tested on: Streptococcus pneumoniae Park I; experiment: microbe, parasite or virus in culture
# Mycoplasma gallisepticum = experiment: MIC, broth-dilution microtiter test, Mycoplasma gallisepticum; details: Mycoplasmoides gallisepticum; Mycoplasma gallisepticum; broth-dilution microtiter; read-out: MIC
# Excerpt: as §1
# [8] = tested on: Staphylococcus aureus X1.1; experiment: MIC, standard agar-dilution assay, Staphylococcus aureus X1.1
# [9] = tested on: Haemophilus influenzae R252; experiment: MIC, standard agar-dilution assay, Haemophilus influenzae R252
# [10] = tested on: Staphylococcus aureus X400; experiment: MIC, standard agar-dilution assay, Staphylococcus aureus X400
# Streptococcus bovis 80 = experiment: MIC, broth-dilution microtiter test, Streptococcus bovis 80; details: Streptococcus equinus; Streptococcus bovis 80; broth-dilution microtiter; read-out: MIC
# Excerpt: as §1
# Mycoplasma synoviae = experiment: MIC, broth-dilution microtiter test, Mycoplasma synoviae; details: Mycoplasmopsis synoviae
# Excerpt: as §1
# Staphylococcus aureus = experiment: MIC, broth-dilution microtiter test, Staphylococcus aureus
# Excerpt: as §1
# [11] = tested on: Staphylococcus epidermidis EPI1; experiment: MIC, standard agar-dilution assay, Staphylococcus epidermidis EPI1
# [12] = tested on: Streptococcus Group D X66; experiment: MIC, standard agar-dilution assay, Streptococcus Group D X66
# [13] = tested on: Staphylococcus aureus V41; experiment: MIC, standard agar-dilution assay, Staphylococcus aureus V41
# [14] = tested on: Pasteurella multocida 60A; experiment: MIC, broth-dilution microtiter test, Pasteurella multocida 60A; details: Pasteurella multocida 60A; avian isolate; broth-dilution microtiter; read-out: MIC
# Excerpt: as §1
# Mycoplasma hyorhinis = experiment: MIC, broth-dilution microtiter test, Mycoplasma hyorhinis
# Excerpt: as §1
# Streptococcus Group 9960 = experiment: MIC, standard agar-dilution assay, Streptococcus Group 9960; details: GROUP9960
# Mycoplasma hyopneumoniae = experiment: MIC, broth-dilution microtiter test, Mycoplasma hyopneumoniae; details: Mesomycoplasma hyopneumoniae; Mycoplasma hyopneumoniae; broth-dilution microtiter; read-out: MIC
# Excerpt: as §1
# [15] = Streptococcus pyogenes C203, agar dilution, read-out: MIC
# [16] = Streptococcus pneumoniae Park I, agar dilution, read-out: MIC
# [17] = Staphylococcus aureus X400, methicillin-resistant strain, agar dilution, read-out: MIC
# [18] = Mycoplasma synoviae, broth-dilution microtiter, read-out: MIC
# [19] = Staphylococcus epidermidis EPI1, agar dilution, read-out: MIC
# [20] = Streptococcus Group D X66, agar dilution, read-out: MIC
# [21] = Mycoplasma hyorhinis, broth-dilution microtiter, read-out: MIC
# [22] = Streptococcus Group 9960, agar dilution, read-out: MIC
# [23] = Haemophilus influenzae Holt, ampicillin-sensitive strain, read-out: MIC
# [24] = Haemophilus influenzae R252, ampicillin-resistant strain, read-out: MIC
# [25] = broth-dilution microtiter, read-out: MIC
SMILES,MIC [1] [µg/mL],MIC [2] [µg/mL],"MIC [3, 15] [µg/mL]",MIC ([4]; Haemophilus influenzae) [µg/mL],MIC [5] [µg/mL],MIC [6] [µg/mL],"MIC [7, 16] [µg/mL]",MIC (Mycoplasma gallisepticum) [µg/mL],"MIC [10, 17] [µg/mL]",MIC (Streptococcus bovis 80) [µg/mL],MIC (Mycoplasma synoviae; [18]) [µg/mL],MIC (Staphylococcus aureus) [µg/mL],"MIC [11, 19] [µg/mL]","MIC [12, 20] [µg/mL]",MIC [14] [µg/mL],MIC (Streptococcus Group 9960; [22]) [µg/mL],MIC (Mycoplasma hyopneumoniae) [µg/mL],"MIC ([8]; Staphylococcus aureus, X1.1) [µg/mL]","MIC [9, 24] [µg/mL]","MIC ([13]; Staphylococcus aureus, V41) [µg/mL]",other results
"CCC1OC(=O)CC(O)C(C)C(OC2OC(C)C(OC3CC(C)(O)C(O)C(C)O3)C(N(C)C)C2O)C(CCOc2ccc(OC)cc2)CC(C)C(=O)C=CC(C)=CC1COC1OC(C)C(O)C(OC)C1OC (stereo not drawn) [Compound 14, 20-DH-20-O-(p-Methoxyphenyl)tylosin]",1,> 50,1,128,> 50,1,8,0.78,2,25,6.25,1.56,2,128,> 50,128,> 25,–,–,–,"MIC ([8]; Staphylococcus aureus X1.1, agar dilution, read-out: MIC): 0.5 µg/mL; MIC ([9]; Haemophilus influenzae, R252): > 128 µg/mL; MIC ([13]; Staphylococcus aureus V41, penicillin-resistant strain, agar dilution, read-out: MIC): 0.5 µg/mL; MIC (Mycoplasma hyorhinis; [21]): > 50 µg/mL"
"CCC1OC(=O)CC(O)C(C)C(OC2OC(C)C(OC3CC(C)(O)C(O)C(C)O3)C(N(C)C)C2O)C(CCOc2cc(Cl)cc(Cl)c2)CC(C)C(=O)C=CC(C)=CC1COC1OC(C)C(O)C(OC)C1OC (stereo not drawn) [Compound 15, 20-DH-20-O-(3,5-Dichlorophenyl)tylosin]",1,> 50,–,–,> 50,1,16,1.56,–,6.25,3.12,–,–,> 128,> 50,> 128,> 25,1,> 128,2,"MIC ([3]; Streptococcus pyogenes, C203): 1 µg/mL; MIC [4, 23]: > 128 µg/mL; MIC ([10]; Staphylococcus aureus, X400): 4 µg/mL; MIC (Staphylococcus aureus; [25]): 1.56 µg/mL; MIC ([11]; Staphylococcus epidermidis, EPI1): 2 µg/mL; MIC (Mycoplasma hyorhinis; Mycoplasma): 50 µg/mL"
"CCC1OC(=O)CC(O)C(C)C(OC2OC(C)C(OC3CC(C)(O)C(O)C(C)O3)C(N(C)C)C2O)C(CCSc2ccccc2)CC(C)C(=O)C=CC(C)=CC1COC1OC(C)C(O)C(OC)C1OC (stereo not drawn) [Compound 6, 20-DH-DO-20-(Phenylthio)tylosin]",1,> 50,–,–,> 50,1,–,0.78,2,> 50,12.5,3.12,2,–,> 50,> 128,> 25,1,> 128,1,"MIC ([3]; Streptococcus pyogenes, C203): 4 µg/mL; MIC [4, 23]: > 128 µg/mL; MIC ([7]; Streptococcus pneumoniae): 64 µg/mL; MIC [12]: > 128 µg/mL; MIC (Mycoplasma hyorhinis; [21]): > 50 µg/mL"
"CCC1OC(=O)CC(O)C(C)C(OC2OC(C)C(OC3CC(C)(O)C(O)C(C)O3)C(N(C)C)C2O)C(CCOc2ccc(C(=O)c3ccccc3)cc2)CC(C)C(=O)C=CC(C)=CC1COC1OC(C)C(O)C(OC)C1OC (stereo not drawn) [Compound 13, 20-DH-20-O-(p-Benzoylphenyl)tylosin]",1,> 50,2,> 128,> 50,1,–,0.78,–,1.56,–,–,2,–,> 50,–,3.12,1,> 128,1,"MIC ([7]; Streptococcus pneumoniae): 1 µg/mL; MIC ([10]; Staphylococcus aureus, X400): 4 µg/mL; MIC (Mycoplasma synoviae): 6.25 µg/mL; MIC (Staphylococcus aureus; [25]): 1.56 µg/mL; MIC [12]: 4 µg/mL; MIC (Mycoplasma hyorhinis; Mycoplasma): 6.25 µg/mL; MIC (Streptococcus Group 9960): 4 µg/mL"
